From patent publication US6649658B1, “(−)-Verbenone derivatives” (Euphar Group SRL, priority 1999, dated 2003)

Experiments:
[1] = tested on: Carrageenin-induced Oedema; experiment: Carrageenin-induced oedema in the rat per os; assay type: in vivo; conditions: 200 mg/kg, maximum effect 120 minutes after administration
Description: (§1) The anti-inflammatory activity of 3-amino-(−)-verbenone-5-sulphosalicylate was compared with that of (−)-verbenone in accordance with methods described in the literature (C. A. WINTER et al. Carrageenin induced edema in hind paw of the rat as an assay for antinflammatory drugs. Proc. Soc. Exp. Biol. Med. 111, 544, 1962. CURVOISIER et al. Action of chlorpromazine on the edema produced by dextran in rats. Arch. Inter. Pharmacodynamie, 102, 33-54, 1955. B. B. NEWBOULD) Chemotherapy of arthritis induced in rats by microbacterial adjuvant. Brit. J. Pharmacol. 21, 127-135, 1963. J. V. HURLEY et al. Reagin-Like antibodies in animals immune to helminth parasites. Nature (Lond.) 204, 91, 1964. ROTHKOPF et al. Arzneimittel Forschung 26, 225-235, 1976. C. A. WINTER et al. Antitussive compounds: testing methods and results. J. Pharmacol. Exp. Ther. 112, 99, 1954. G. OSTERLOH Arzneimittel Forschung, 16, 901, 1966); the results are given hereinafter in schematic form.
1. Carrageenin-induced Oedema in the Rat per OS
(§2) Parameter: percentage volumetric inhibition; maximum effect 120 minutes after administration: […]

[2] = tested on: Carrageenin-induced Oedema; experiment: Carrageenin-induced oedema in the rat by the intraperitoneal route; assay type: in vivo; conditions: 120 mg/kg, maximum effect 120 minutes after administration
Description: as §1
2. Carrageenin-induced Oedema in the Rat by the Intraperitoneal Route
as §2

[3] = tested on: Adjuvant Arthritis; experiment: Adjuvant arthritis in the rat by the intraperitoneal route; assay type: in vivo; conditions: 60 mg/kg, day 28
Description: as §1
3 Adjuvant Arthritis in the Rat by the Intraperitoneal Route
Parameter: percentage inhibition of the volumetric increase of the lower limbs; day “28”: […]

[4] = tested on: Turpentine-induced Pleurisy; experiment: Turpentine-induced pleurisy in the rat by the intraperitoneal route; assay type: in vivo; conditions: 60 mg/kg
Description: as §1
4. Turpentine-induced Pleurisy in the Rat by the Intraperitoneal Route
Parameter: percentage inhibition of the volume of exudate and of leukocyte migration: […]

[5] = tested on: Carrageenin-induced Pleurisy; experiment: Carrageenin-induced pleurisy in the rat per os; assay type: in vivo; conditions: 180 mg/kg
Description: as §1
5. Carrageenin-induced Pleurisy in the Rat per OS
(§3) Parameter: percentage inhibition of the volume of exudate: […]

[6] = tested on: Carrageenin-induced Pleurisy; experiment: Carrageenin-induced pleurisy in the rat by the intraperitoneal route; assay type: in vivo; conditions: 25 mg/kg
Description: as §1
6. Carrageenin-induced Pleurisy in the Rat by the Intraperitoneal Route
as §3

[7] = tested on: Acrolein-induced Aerosol (inflammation of the airways); experiment: Acrolein-induced aerosol in the guinea pig by the intraperitoneal route; assay type: in vivo; conditions: 30 mg/kg, residual inflammation after treatment (lower is better)
Description: as §1
7. Acrolein-induced Aerosol in the Guinea Pig by the Intraperitoneal Route
Parameter: inflammation of the upper, middle, lower airways: scores (double blind):
(§4) N. B. It should be emphasised in this connection that the results of Examples 1-6 have been given as a percentage of volumetric inhibition; Examples 7 and 8, however, indicate inflammation and adverse gastric action of a residual nature after treatment.

[8] = tested on: Adverse Gastric Activity; experiment: Adverse gastric activity in the rat per os (Osterloh); assay type: in vivo; conditions: for evaluation of adverse gastric action according to Osterloh: rat, per os, 360 mg/kg, residual adverse gastric action after treatment
Description: as §1
8. Adverse Gastric Activity in the Rat per OS
Parameter: evaluation of adverse gastric action according to Osterloh
as §4

[9] = Water solubility; assay type: physicochemical; conditions: in words
[10] = Stability on storage or handling; assay type: physicochemical; conditions: in words

Molecule	percentage volumetric inhibition [1] [%]	percentage volumetric inhibition [2] [%]	percentage inhibition of the volumetric increase of the lower limbs [3] [%]	percentage inhibition of the volume of exudate and of leukocyte migration [4] [%]	percentage inhibition of the volume of exudate [5] [%]	percentage inhibition of the volume of exudate [6] [%]	inflammation of the upper, middle, lower airways: scores (double blind) [7]	evaluation of adverse gastric action according to Osterloh [8]	adverse gastric activity compared with (−)-verbenone ([8]; test 8, in words)	solubility in water [9]	stability [10]
3-Aminoverbenone-5-sulphosalicylate [3-amino-(−)-verbenone-5-sulphosalicylate]	78	67	64	68	72	64	18	0.85	substantially lower adverse gastric activity		
CC1=CC(=O)[C@H]2C[C@@H]1C2(C)C [(−)-verbenone, (1S,5S)-4,6,6-Trimethylbicyclo[3.1.1]hept-3-en-2-one]	63	48	39	49	46	48	24	2		water-insolubility	instability over time
C=C1C=C(N2CCCC2)[C@H]2C[C@H]1C2(C)C [Compound 9c, (1S,5S)-6,6-Dimethyl-4-methylene-2-pyrrolidinobicyclo[3.1.1]hept-2-ene]											sensitive to oxygen, moisture and light
